Measurements: patent US10435399B2, “HDAC6 inhibitory heterocyclic compound” (TAKEDA PHARMACEUTICAL COMPANY LIMITED, priority 2017, dated 2019)

target: T1, HDAC6 enzyme (Homo sapiens, UniProt Q9UBN7); assay: HDAC6 enzyme inhibitory activity (HDAC-Glo I/II Assay kit); format: biochemical; conditions: 10 μM; wells without enzyme = 100% inhibition; read-out: HDAC6 inhibitory rate (%) (10 μM)
T1 construct: transducing full length HDAC6 gene into Sf-9 insect cells; GST; purchased SignalChem; host or cells: Sf-9 insect cells
T1 sequence (Q9UBN7 1-1215): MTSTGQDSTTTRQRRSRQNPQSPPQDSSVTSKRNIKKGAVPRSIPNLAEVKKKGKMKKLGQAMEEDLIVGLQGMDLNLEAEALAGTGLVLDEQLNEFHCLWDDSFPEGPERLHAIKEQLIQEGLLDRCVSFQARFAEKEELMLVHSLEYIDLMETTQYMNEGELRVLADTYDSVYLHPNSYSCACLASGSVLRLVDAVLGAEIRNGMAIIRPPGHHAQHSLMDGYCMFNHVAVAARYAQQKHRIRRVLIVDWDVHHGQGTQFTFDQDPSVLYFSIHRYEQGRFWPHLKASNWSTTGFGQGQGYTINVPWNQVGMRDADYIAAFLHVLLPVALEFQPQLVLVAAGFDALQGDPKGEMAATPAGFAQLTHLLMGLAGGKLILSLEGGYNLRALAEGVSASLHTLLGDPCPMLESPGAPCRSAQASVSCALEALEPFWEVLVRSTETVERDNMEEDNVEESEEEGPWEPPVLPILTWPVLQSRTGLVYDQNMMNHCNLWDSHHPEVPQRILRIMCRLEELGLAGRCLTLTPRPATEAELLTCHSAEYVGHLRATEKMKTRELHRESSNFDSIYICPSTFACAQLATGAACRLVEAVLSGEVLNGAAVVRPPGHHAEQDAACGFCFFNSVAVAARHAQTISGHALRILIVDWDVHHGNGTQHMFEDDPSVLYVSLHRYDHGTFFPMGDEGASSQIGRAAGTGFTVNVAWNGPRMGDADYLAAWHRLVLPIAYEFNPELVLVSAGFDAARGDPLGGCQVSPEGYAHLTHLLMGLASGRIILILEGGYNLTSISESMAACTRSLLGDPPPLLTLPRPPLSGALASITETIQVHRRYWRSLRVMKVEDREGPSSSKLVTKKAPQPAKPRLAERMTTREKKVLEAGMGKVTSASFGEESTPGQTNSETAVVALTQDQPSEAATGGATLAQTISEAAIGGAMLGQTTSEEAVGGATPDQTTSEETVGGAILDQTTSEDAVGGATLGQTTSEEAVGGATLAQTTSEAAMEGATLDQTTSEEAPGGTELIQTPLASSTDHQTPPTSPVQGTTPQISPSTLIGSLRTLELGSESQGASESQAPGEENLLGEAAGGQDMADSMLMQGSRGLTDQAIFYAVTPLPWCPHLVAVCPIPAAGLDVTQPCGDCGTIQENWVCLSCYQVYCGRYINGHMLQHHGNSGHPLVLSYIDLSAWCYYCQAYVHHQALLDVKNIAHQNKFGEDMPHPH
Outline: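 Test compound is preincubated 60 min at RT with full-length insect-cell HDAC6 in Tris-HCl pH 7.5 with 135 mM NaCl and 1 mM MgCl2. A 20 min room-temperature HDAC-Glo reaction follows, with luminescent read-out.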

Question: For O=C1CCCN1c1cc(F)ccc1N1Cc2ccc(-c3nnc(C(F)F)o3)cc2C1=O [Example 439, 6-(5-(difluoro-methyl)-1,3,4-oxadiazol-2-yl)-2-(4-fluoro-2-(2-oxo-pyrrolidin-1-yl)phenyl) isoindolin-1-one], which inhibition at 10 µM is on record?
Answer: The inhibition at 10 µM was 99%.

Question: Which inhibition at 10 µM does the source give for O=C1c2cc(-c3nnc(C(F)F)o3)ccc2CN1c1ccccc1-c1ccc(F)c(F)c1 [Example 307, 2-(3′,4′-difluorobiphenyl-2-yl)-6-(5-(difluoromethyl)-1,3,4-oxadiazol-2-yl)-isoindolin-1-one] here?
Answer: The inhibition at 10 µM was 98%.

Question: Which inhibition at 10 µM does the source give for CC1CC1C(=O)N[C@@H]1CCCC[C@H]1N1Cc2ccc(-c3nnc(C(F)F)o3)cc2C1=O (stereo partly drawn) [Example 73, N-((1R,2R)-2-(6-(5-(difluoromethyl)-1,3,4-oxadiazol-2-yl)-1-oxo-1,3-dihydro-2H-isoindol-2-yl)cyclohexyl)-2-methylcyclopropanecarboxamide] here?
Answer: Its inhibition at 10 µM is 100%.

Question: How did the inhibition at 10 µM turn out when Cn1cc(C2CCC(NC(=O)C(F)(F)C(F)(F)F)CC2)c(N2Cc3ccc(-c4nnc(C(F)F)o4)cc3C2=O)n1 (stereo not drawn) [Example 532, N-(4-(3-(6-(5-(difluoromethyl)-1,3,4-oxadiazol-2-yl)-1-oxo-1,3-dihydro-2H-isoindol-2-yl)-1-methyl-1H-pyrazol-4-yl)cyclohexyl)-2,2,3,3,3-pentafluoropropanamide] was run?
Answer: Its inhibition at 10 µM is 99%.

Question: With O=C(N[C@@H]1CCCC[C@H]1N1Cc2ccc(-c3nnc(C(F)F)o3)cc2C1=O)c1cocn1 [Example 27, N-((1R,2R)-2-(6-(5-(difluoromethyl)-1,3,4-oxadiazol-2-yl)-1-oxo-1,3-dihydro-2H-isoindol-2-yl)cyclohexyl)-1,3-oxazole-4-carboxamide] as the molecule, how does the inhibition at 10 µM read?
Answer: Its inhibition at 10 µM is 100%.

Question: For O=C1c2cc(-c3nnc(C(F)F)o3)ccc2CN1[C@@H]1CCCC[C@@H]1NC(=O)C(F)(F)C(F)(F)F [Example 261, N-((1S,2R)-2-(6-(5-(difluoro-methyl)-1,3,4-oxadiazol-2-yl)-1-oxo-1,3-dihydro-2H-isoindol-2-yl)cyclohexyl)-2,2,3,3,3-pentafluoropropan-amide], which inhibition at 10 µM is on record?
Answer: The inhibition at 10 µM was 99%.

Question: With Cc1ccc(-c2ccccc2N2Cc3ccc(-c4nnc(C(F)F)o4)cc3C2=O)cc1 [Example 313, 6-(5-(difluoromethyl)-1,3,4-oxadiazol-2-yl)-2-(4′-methyl-biphenyl-2-yl)isoindolin-1-one] as the molecule, how does the inhibition at 10 µM read?
Answer: Its inhibition at 10 µM is 98%.

Question: How did the inhibition at 10 µM turn out when O=C1CCCCN1[C@@H]1COCC[C@H]1N1Cc2c(F)cc(-c3nnc(C(F)F)o3)cc2C1=O [Example 137, 6-(5-(difluoromethyl)-1,3,4-oxadiazol-2-yl)-4-fluoro-2-((3S,4R)-3-(2-oxopiperidin-1-yl)tetrahydro-2H-pyran-4-yl)isoindolin-1-one] was run?
Answer: The inhibition at 10 µM was 98%.

Question: For CCC(F)(F)C(=O)N[C@@H]1CCOC[C@H]1N1Cc2c(F)cc(-c3nnc(C(F)F)o3)cc2C1=O [Example 204], which inhibition at 10 µM is on record?
Answer: Its inhibition at 10 µM is 100%.

Question: How did the inhibition at 10 µM turn out when O=C(N[C@@H]1CCCC[C@H]1N1Cc2ccc(-c3nnc(C(F)F)o3)cc2C1=O)C1CCC1 [Example 12, N-((1R,2R)-2-(6-(5-(difluoromethyl)-1,3,4-oxadiazol-2-yl)-1-oxo-1,3-dihydro-2H-isoindol-2-yl)cyclohexyl)cyclobutanecarboxamide] was run?
Answer: Its inhibition at 10 µM is 100%.

Question: Which inhibition at 10 µM does the source give for N#Cc1ccccc1C(=O)N[C@@H]1CCCC[C@H]1N1Cc2ncc(-c3nnc(C(F)F)o3)cc2C1=O [Example 223, 2-cyano-N-((1R,2R)-2-(3-(5-(difluoro-methyl)-1,3,4-oxadiazol-2-yl)-5-oxo-5,7-dihydro-6H-pyrrolo[3,4-b]-pyridin-6-yl)cyclohexyl)benzamide] here?
Answer: Its inhibition at 10 µM is 99%.

Question: For O=C1c2cc(-c3nnc(C(F)F)o3)cnc2CN1[C@@H]1CCCC[C@H]1NC(=O)C1(C(F)(F)F)CC1 [Example 149, N-((1R,2R)-2-(3-(5-(difluoromethyl)-1,3,4-oxadiazol-2-yl)-5-oxo-5,7-dihydro-6H-pyrrolo[3,4-b]pyridin-6-yl)cyclohexyl)-1-(trifluoromethyl)cyclopropanecarboxamide], which inhibition at 10 µM is on record?
Answer: The inhibition at 10 µM was 102%.

Question: For COC(=O)N1CC[C@@H](c2ccc(F)cc2)[C@H](N2Cc3ccc(-c4nnc(C(F)F)o4)cc3C2=O)C1 (relative stereo) [Example 544, methyl (3S*,4S*)-3-(6-(5-(difluoromethyl)-1,3,4-oxadiazol-2-yl)-1-oxo-1,3-dihydro-2H-isoindol-2-yl)-4-(4-fluorophenyl)piperidine-1-carboxylate (optical isomer)], which inhibition at 10 µM is on record?
Answer: Its inhibition at 10 µM is 99%.

Question: Cn1cc(-c2cc(F)ccc2N2Cc3c(F)cc(-c4nnc(C(F)F)o4)cc3C2=O)cn1 [Example 382, 6-(5-(difluoro-methyl)-1,3,4-oxadiazol-2-yl)-4-fluoro-2-(4-fluoro-2-(1-methyl-1H-pyrazol-4-yl)phenyl) isoindolin-1-one] was tested. Which inhibition at 10 µM did it give?
Answer: The inhibition at 10 µM was 98%.

Question: With CCN(CC)C(=O)C1CC(F)(F)CCN1N1Cc2ccc(-c3nnc(C(F)F)o3)cc2C1=O (stereo not drawn) [Example 645, 1-(6-(5-(difluoromethyl)-1,3,4-oxadiazol-2-yl)-1-oxo-1,3-dihydro-2H-isoindol-2-yl)-N,N-diethyl-4,4-difluoropiperidine-2-carboxamide] as the molecule, how does the inhibition at 10 µM read?
Answer: The inhibition at 10 µM was 99%.

Question: O=C1c2cc(-c3nnc(C(F)F)o3)cc(F)c2CN1C[C@H]1CC(F)(F)CN1S(=O)(=O)CC(F)(F)F [Example 421, 6-(5-(difluoro-methyl)-1,3,4-oxadiazol-2-yl)-2-(((2R)-4,4-difluoro-1-((2,2,2-trifluoro-ethyl)sulfonyl)pyrrolidin-2-yl)methyl)-4-fluoroiso-indolin-1-one] was tested. Which inhibition at 10 µM did it give?
Answer: Its inhibition at 10 µM is 98%.

Question: How did the inhibition at 10 µM turn out when O=C1c2cc(-c3nnc(C(F)F)o3)ccc2CN1[C@@H]1CCCC[C@H]1c1noc(C2CC2)n1 (racemic) [Example 558, 2-((1RS,2RS)-2-(5-cyclopropyl-1,2,4-oxadiazol-3-yl)cyclohexyl)-6-(5-(difluoromethyl)-1,3,4-oxadiazol-2-yl)isoindolin-1-one] was run?
Answer: Its inhibition at 10 µM is 99%.

Question: For O=C1c2cc(-c3nnc(C(F)F)o3)cnc2CN1Cc1ccccc1Cl [Example 340, 6-(2-chlorobenzyl)-3-(5-(difluoromethyl)-1,3,4-oxadiazol-2-yl)-6,7-dihydro-5H-pyrrolo[3,4-b]pyridin-5-one], which inhibition at 10 µM is on record?
Answer: The inhibition at 10 µM was 96%.

Question: For CCCC(=O)N[C@@H]1CCCC[C@H]1N1Cc2ccc(-c3nnc(C(F)F)o3)cc2C1=O [Example 50, N-((1R,2R)-2-(6-(5-(difluoromethyl)-1,3,4-oxadiazol-2-yl)-1-oxo-1,3-dihydro-2H-isoindol-2-yl)cyclohexyl)butanamide], which inhibition at 10 µM is on record?
Answer: Its inhibition at 10 µM is 101%.

Question: For O=C1c2cc(-c3nnc(C(F)F)o3)ccc2CN1c1ccccc1-c1ccccc1Cl [Example 281, 2-(2′-chlorobiphenyl-2-yl)-6-(5-(difluoromethyl)-1,3,4-oxadiazol-2-yl)isoindolin-1-one], which inhibition at 10 µM is on record?
Answer: Its inhibition at 10 µM is 98%.

Question: CC1(C)CC1C(=O)N[C@@H]1CCCC[C@H]1N1Cc2ccc(-c3nnc(C(F)F)o3)cc2C1=O (stereo partly drawn) [Example 75, N-((1R,2R)-2-(6-(5-(difluoromethyl)-1,3,4-oxadiazol-2-yl)-1-oxo-1,3-dihydro-2H-isoindol-2-yl)cyclohexyl)-2,2-dimethylcyclopropanecarboxamide] was tested. Which inhibition at 10 µM did it give?
Answer: Its inhibition at 10 µM is 101%.

Question: For CCc1cnn(-c2cc(F)ccc2N2Cc3ccc(-c4nnc(C(F)F)o4)cc3C2=O)c1 [Example 488, 6-(5-(difluoro-methyl)-1,3,4-oxadiazol-2-yl)-2-(2-(4-ethyl-1H-pyrazol-1-yl)-4-fluoro-phenyl) isoindolin-1-one], which inhibition at 10 µM is on record?
Answer: Its inhibition at 10 µM is 100%.

Question: For O=C1c2cc(-c3nnc(C(F)F)o3)cc(F)c2CN1C[C@@H]1CCCN1 [Example 326, 6-(5-(difluoromethyl)-1,3,4-oxadiazol-2-yl)-4-fluoro-2-((2S)-pyrrolidin-2-ylmethyl)-isoindolin-1-one], which inhibition at 10 µM is on record?
Answer: The inhibition at 10 µM was 86%.

Question: With CC(C)(C)OC(=O)N[C@H]1COCC[C@H]1N1Cc2ccc(-c3nnc(C(F)F)o3)cc2C1=O [Example 413, tert-butyl ((3R,4R)-4-(6-(5-(difluoro-methyl)-1,3,4-oxadiazol-2-yl)-1-oxo-1,3-dihydro-2H-isoindol-2-yl)tetrahydro-2H-pyran-3-yl) carbamate] as the molecule, how does the inhibition at 10 µM read?
Answer: Its inhibition at 10 µM is 98%.
